Results as given in US20250019385A1, “SPIROCYCLIC ANNULATED 2-AMINO-3-CYANO THIOPHENES AND DERIVATIVES FOR THE TREATMENT OF CANCER” (Boehringer Ingelheim International GmbH, priority 2023, published 2025).

Molecular target: KRAS (G12C)::SOS1 protein-protein interaction (Homo sapiens (Human), UniProt P01116, C118S/C51S/C80L/G12C)
Assay: KRAS::SOS1 AlphaScreen binding assay (KRAS G12C)
Conditions: GDP
Text: This assay can be used to examine the potency with which compounds according to the invention binding to (mutated) KRAS inhibit the protein-protein interaction between SOS1 and (mutated) KRAS e.g. KRAS G12C, KRAS G12D. […] Low IC50 values in this assay setting are indicative of strong inhibition of protein-protein interaction between SOS1 and KRAS:
These assays measure the inhibitory effect of compounds on KRAS mutant protein-protein interactions using the Alpha Screen technology by Perkin Elmer.
The following (mutant) enzyme forms of KRAS and interacting proteins are used in these assays at the given concentrations:
KRAS (G12C) 1-169, N-terminal 6His-tag for purification, cleaved off, C-terminal avi-tag, biotinylated, mutations: C51S, C80L, C118S (in house); final assay concentration 7.5 nM and SOS1 564-1049, N-terminal 229 GST-tag, TEV cleavage site (Viva Biotech Ltd); final assay concentration 5 nM;
Test compounds dissolved in DMSO are dispensed onto assay plates (Proxiplate 384 PLUS, white, PerkinElmer; 6008289) using an Access Labcyte Workstation with the Labcyte Echo 55x. For the chosen highest assay concentration of 100 μM, 150 nL of compound solution are transferred from a 10 mM DMSO compound stock solution. A series of eleven fivefold dilutions per compound are transferred to the assay plate, compound dilutions are tested in duplicates. DMSO are added as backfill to a total volume of 150 nL.
The assays run on a fully automated robotic system in a darkened room below 100 Lux. To 150 nl of compound dilution 10 μl of a mix including KRAS mutant protein, SOS1 (final assay concentrations see above) and GDP nucleotide (Sigma G7127; final assay concentration 10 μM) in assay buffer (1×PBS, 0.1% BSA, 0.05% Tween 20) are added into columns 1-24.
After 30 minutes incubation time 5 μl of Alpha Screen bead mix in assay buffer are added into columns 1-23. Bead mix consists of AlphaLISA Glutathione Acceptor Beads (PerkinElmer, Cat No AL109) and AlphaScreen Streptavidin Donor Beads (PerkinElmer Cat No 6760002) in assay buffer at a final assay concentration of 10 μg/mL each.
Plates are kept at room temperature in a darkened incubator. After an additional 60 minutes incubation time the signal is measured in a PerkinElmer Envision HTS Multilabel Reader using the AlphaScreen specs from PerkinElmer.
Each plate contains up to 16 wells of a negative control depending on the dilution procedure (platewise or serial) (DMSO instead of test compound; with KRAS mutant::SOS1 GOP mix and bead mix; column 23) and 16 wells of a positive control (DMSO instead of test compound; with KRAS mutant::SOS1 GOP mix w/o bead mix; column 24).
As internal control known inhibitors of KRAS mutant::SOS1 interaction can be measured on each compound plate.
IC50 values are calculated and analyzed with Boehringer Ingelheim's MEGALAB C50 application using a 4 parametric logistic model.
Tables of example compounds disclosed herein contain IC50 values determined using the above assays (see Table 43).

Chain of KRAS (G12C)::SOS1 protein-protein interaction (P01116 other isoform, or with tags, fused parts or gaps G12C/C51S/C80L/C118S): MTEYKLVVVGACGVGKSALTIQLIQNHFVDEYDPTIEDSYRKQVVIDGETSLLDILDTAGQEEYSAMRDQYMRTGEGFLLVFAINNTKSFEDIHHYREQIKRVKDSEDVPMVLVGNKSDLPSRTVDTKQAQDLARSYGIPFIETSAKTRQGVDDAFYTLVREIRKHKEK

Point of comparison: `C[C@H](Oc1nc(-c2onc3c2CCC[C@@]32CCCc3sc(N)c(C#N)c32)nc2c1n(C)c(=O)n2[C@@]12COC[C@@H]1C2)[C@@H]1CCCN1C` [I-29], IC50 1 nM. Against it:
- C[C@H](Oc1nc(-c2onc3c2CCC[C@@]32CCCc3sc(N)c(C#N)c32)nc2c1[nH]c(=O)n2[C@@H]1CCOC1)[C@@H]1CCCN1C [I-8] — the same, 1 nM
- C[C@H](Oc1nc(-c2onc3c2CCC[C@@]32CCCc3sc(N)c(C#N)c32)nc2c1n(C)c(=O)n2[C@@H]1CCCOC1)[C@@H]1CCCN1C [I-12] — the same, 1 nM
- C[C@H](Oc1nc(-c2noc3c2CCC[C@@]32CCCc3sc(N)c(C#N)c32)nc2c1COC[C@]21CCOC1)[C@@H]1CCCN1C [II-8] — the same, 1 nM
- COCCn1c(=O)n([C@@H]2CCOC2)c2nc(-c3onc4c3CCC[C@@]43CCCc4sc(N)c(C#N)c43)nc(O[C@@H](C)[C@@H]3CCCN3C)c21 [I-1] — 2-fold higher, 2 nM

Tested on: MKN1 cells
Assay: MKN1 CTG proliferation assay (120 h) (gastric cancer, wt amplified)
Type: cell-based
Conditions: Homo sapiens, MKN-1
Protocol: MKN1 cells (JCRB0252) are dispensed into black 384-well plates, flat and clear bottom (Greiner, PNr. 781091) at a density of 200 cells per well in 60 μl RPMI-1640 ATCC-Formulation (Gibco #A10491)+10% FCS (fetal calf serum, HyClone, SH30084.03). Cells are incubated overnight at 37° C. in a humidified tissue culture incubator at 5% CO2. Compounds (10 mM stock in DMSO) are added at logarithmic dose series using the ECHO acoustic liquid handler system (Beckman Coulter), normalizing for added DMSO and including DMSO controls. All compound treatments are performed in technical duplicates. For the TO time point measurement, untreated cells are analyzed at the time of compound addition. Plates are incubated for 120 h, and cell viability is measured using CellTiter-Glo luminescent cell viability reagent (Promega product code G7570). Viability (stated as percent of control) is defined as relative luminescence units RLU of each well divided by the RLU of cells in DMSO controls. IC50 values are determined from viability measurements by non-linear regression using a four-parameter model.
IC50 values of representative compounds according to the invention measured with these assays in the indicated cell lines are presented in Table 46.

Point of comparison: `C[C@H](Oc1nc(-c2onc3c2CCC[C@@]32CCCc3sc(N)c(C#N)c32)nc2c1n(C)c(=O)n2[C@@]12COC[C@@H]1C2)[C@@H]1CCCN1C` [I-29], IC50 5 nM. Against it:
- C[C@H](Oc1nc(-c2onc3c2CCC[C@@]32CCCc3sc(N)c(C#N)c32)nc2c1[nH]c(=O)n2[C@@H]1CCOC1)[C@@H]1CCCN1C [I-8] — 8.2-fold higher, 41 nM
- C[C@H](Oc1nc(-c2onc3c2CCC[C@@]32CCCc3sc(N)c(C#N)c32)nc2c1n(C)c(=O)n2[C@@H]1CCCOC1)[C@@H]1CCCN1C [I-12] — 2-fold higher, 10 nM
- C[C@H](Oc1nc(-c2noc3c2CCC[C@@]32CCCc3sc(N)c(C#N)c32)nc2c1COC[C@]21CCOC1)[C@@H]1CCCN1C [II-8] — 1.7-fold lower, 3 nM
- COCCn1c(=O)n([C@@H]2CCOC2)c2nc(-c3onc4c3CCC[C@@]43CCCc4sc(N)c(C#N)c43)nc(O[C@@H](C)[C@@H]3CCCN3C)c21 [I-1] — 60-fold higher, 300 nM

Molecular target: KRAS (G12D)::SOS1 protein-protein interaction (Homo sapiens (Human), UniProt P01116, G12D)
Assay: KRAS::SOS1 AlphaScreen binding assay (KRAS G12D)
Conditions: GDP
How it was run: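 AlphaScreen assay with KRAS G12D (1-169, 6His/avi-tagged, 10 nM), GST-SOS1 564-1049 (5 nM) and GDP (10 μM) in PBS, 0.1% BSA, 0.05% Tween 20; compound up to 100 μM top concentration, eleven fivefold dilutions in duplicate. After 30 min, glutathione acceptor and streptavidin donor beads (10 μg/mL each) were added and signal read after a further 60 min at room temperature in the dark; IC50 from 4-parameter logistic fit.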

Chain of KRAS (G12D)::SOS1 protein-protein interaction (P01116 other isoform, or with tags, fused parts or gaps G12D): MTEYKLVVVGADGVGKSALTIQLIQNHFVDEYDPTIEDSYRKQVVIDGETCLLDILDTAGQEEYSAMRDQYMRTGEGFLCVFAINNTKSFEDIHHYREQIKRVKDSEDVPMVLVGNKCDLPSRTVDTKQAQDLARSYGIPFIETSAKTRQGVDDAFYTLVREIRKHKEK

Point of comparison: `C[C@H](Oc1nc(-c2onc3c2CCC[C@@]32CCCc3sc(N)c(C#N)c32)nc2c1n(C)c(=O)n2[C@@]12COC[C@@H]1C2)[C@@H]1CCCN1C` [I-29], IC50 1 nM. Against it:
- C[C@H](Oc1nc(-c2onc3c2CCC[C@@]32CCCc3sc(N)c(C#N)c32)nc2c1[nH]c(=O)n2[C@@H]1CCOC1)[C@@H]1CCCN1C [I-8] — the same, 1 nM
- C[C@H](Oc1nc(-c2onc3c2CCC[C@@]32CCCc3sc(N)c(C#N)c32)nc2c1n(C)c(=O)n2[C@@H]1CCCOC1)[C@@H]1CCCN1C [I-12] — the same, 1 nM
- C[C@H](Oc1nc(-c2noc3c2CCC[C@@]32CCCc3sc(N)c(C#N)c32)nc2c1COC[C@]21CCOC1)[C@@H]1CCCN1C [II-8] — the same, 1 nM
- COCCn1c(=O)n([C@@H]2CCOC2)c2nc(-c3onc4c3CCC[C@@]43CCCc4sc(N)c(C#N)c43)nc(O[C@@H](C)[C@@H]3CCCN3C)c21 [I-1] — the same, 1 nM

Tested on: not listed separately
Assay: Solubility measurement (DMSO solution precipitation method)
Type: physicochemical
Conditions: aqueous buffer, kinetic from dmso stock, McIlvaine buffer pH 4.5, 24 h, read-out: solubility pH 4.5
How it was run: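 A 10 mM DMSO stock was diluted to 250 μM final in McIlvaine buffer at pH 4.5 or 6.8, then shaken 24 h at ambient temperature. After filtering off precipitate, filtrate concentration was quantified by LC-UV against a fully dissolved reference in acetonitrile/water (1:1).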

`C[C@H](Oc1nc(-c2onc3c2CCC[C@@]32CCCc3sc(N)c(C#N)c32)nc2c1[nH]c(=O)n2[C@@H]1CCOC1)[C@@H]1CCCN1C` [I-8] and `C[C@H](Oc1nc(-c2onc3c2CCC[C@@]32CCCc3sc(N)c(C#N)c32)nc2c1n(C)c(=O)n2[C@@H]1CCCOC1)[C@@H]1CCCN1C` [I-12] cannot be ordered by solubility at 24 h: greater than 147 µg/mL for the first, greater than 155 µg/mL for the second.

`C[C@H](Oc1nc(-c2onc3c2CCC[C@@]32CCCc3sc(N)c(C#N)c32)nc2c1n(C)c(=O)n2[C@@]12COC[C@@H]1C2)[C@@H]1CCCN1C` [I-29] and `COCCn1c(=O)n([C@@H]2CCOC2)c2nc(-c3onc4c3CCC[C@@]43CCCc4sc(N)c(C#N)c43)nc(O[C@@H](C)[C@@H]3CCCN3C)c21` [I-1] cannot be ordered by solubility at 24 h: greater than 161 µg/mL for the first, greater than 157 µg/mL for the second.

`C[C@H](Oc1nc(-c2noc3c2CCC[C@@]32CCCc3sc(N)c(C#N)c32)nc2c1COC[C@]21CCOC1)[C@@H]1CCCN1C` [II-8] gave a solubility at 24 h greater than 142 µg/mL.

Same assay, conditions: aqueous buffer, kinetic from dmso stock, McIlvaine buffer pH 6.8, 24 h, read-out: solubility pH 6.8

`C[C@H](Oc1nc(-c2onc3c2CCC[C@@]32CCCc3sc(N)c(C#N)c32)nc2c1[nH]c(=O)n2[C@@H]1CCOC1)[C@@H]1CCCN1C` [I-8] and `C[C@H](Oc1nc(-c2onc3c2CCC[C@@]32CCCc3sc(N)c(C#N)c32)nc2c1n(C)c(=O)n2[C@@H]1CCCOC1)[C@@H]1CCCN1C` [I-12] cannot be ordered by solubility at 24 h: greater than 139 µg/mL for the first, greater than 142 µg/mL for the second.

`C[C@H](Oc1nc(-c2onc3c2CCC[C@@]32CCCc3sc(N)c(C#N)c32)nc2c1n(C)c(=O)n2[C@@]12COC[C@@H]1C2)[C@@H]1CCCN1C` [I-29] and `COCCn1c(=O)n([C@@H]2CCOC2)c2nc(-c3onc4c3CCC[C@@]43CCCc4sc(N)c(C#N)c43)nc(O[C@@H](C)[C@@H]3CCCN3C)c21` [I-1] cannot be ordered by solubility at 24 h: greater than 165 µg/mL for the first, greater than 155 µg/mL for the second.

Work on `C[C@H](Oc1nc(-c2noc3c2CCC[C@@]32CCCc3sc(N)c(C#N)c32)nc2c1COC[C@]21CCOC1)[C@@H]1CCCN1C` [II-8] yielded a solubility at 24 h greater than 143 µg/mL.
